± gives the expanded uncertainty stated by the source.
Test: xn = mol fraction of the nth substance listed
Conditions: Liquid, Pycnometric method

CCCCCl [1-chlorobutane] + O=C=O
Conditions | mass density [kg/m3]
322.7 K, 8980 kPa, x1 = 0.0243 | 377 ± 4
322.7 K, 8990 kPa, x1 = 0.0744 | 690 ± 4
322.7 K, 9050 kPa, x1 = 0.0243 | 387 ± 4
322.7 K, 9110 kPa, x1 = 0.0243 | 397 ± 4
322.7 K, 9120 kPa, x1 = 0.0981 | 754 ± 4
322.7 K, 9140 kPa, x1 = 0.0744 | 698 ± 4
322.7 K, 9170 kPa, x1 = 0.0243 | 407 ± 4
322.7 K, 9240 kPa, x1 = 0.0243 | 418 ± 4
322.7 K, 9280 kPa, x1 = 0.1488 | 802 ± 4
322.7 K, 9290 kPa, x1 = 0.0744 | 705 ± 4
322.7 K, 9300 kPa, x1 = 0.0981 | 759 ± 4
322.7 K, 9320 kPa, x1 = 0.0243 | 430 ± 4
322.7 K, 9390 kPa, x1 = 0.0243 | 443 ± 4
322.7 K, 9470 kPa, x1 = 0.0243 | 456 ± 4
322.7 K, 9470 kPa, x1 = 0.0744 | 713 ± 4
322.7 K, 9500 kPa, x1 = 0.0981 | 764 ± 4
322.7 K, 9560 kPa, x1 = 0.0243 | 470 ± 4
322.7 K, 9600 kPa, x1 = 0.1488 | 807 ± 4
322.7 K, 9630 kPa, x1 = 0.0243 | 482 ± 4
322.7 K, 9700 kPa, x1 = 0.0243 | 494 ± 4
322.7 K, 9700 kPa, x1 = 0.0744 | 721 ± 4
322.7 K, 9720 kPa, x1 = 0.0981 | 769 ± 4
322.7 K, 9740 kPa, x1 = 0.0243 | 501 ± 4
322.7 K, 9790 kPa, x1 = 0.0243 | 507 ± 4
322.7 K, 9810 kPa, x1 = 0.0243 | 510 ± 4
322.7 K, 9940 kPa, x1 = 0.0744 | 729 ± 4
322.7 K, 9950 kPa, x1 = 0.1488 | 811 ± 4
322.7 K, 10080 kPa, x1 = 0.0981 | 777 ± 4
322.7 K, 10210 kPa, x1 = 0.0744 | 738 ± 4
322.7 K, 10310 kPa, x1 = 0.1488 | 815 ± 4
322.7 K, 10480 kPa, x1 = 0.0981 | 785 ± 4
322.7 K, 10520 kPa, x1 = 0.0744 | 746 ± 4
322.7 K, 10730 kPa, x1 = 0.1488 | 820 ± 4
322.7 K, 10870 kPa, x1 = 0.0744 | 755 ± 4
322.7 K, 10920 kPa, x1 = 0.0981 | 792 ± 4
322.7 K, 11110 kPa, x1 = 0.1488 | 823 ± 4
322.7 K, 11230 kPa, x1 = 0.0744 | 764 ± 4
322.7 K, 11440 kPa, x1 = 0.0981 | 802 ± 4
322.7 K, 11540 kPa, x1 = 0.1488 | 828 ± 4
322.7 K, 11680 kPa, x1 = 0.0744 | 773 ± 4
322.7 K, 12000 kPa, x1 = 0.0981 | 810 ± 4
322.7 K, 12020 kPa, x1 = 0.1488 | 832 ± 4
322.7 K, 12170 kPa, x1 = 0.0744 | 782 ± 4
322.7 K, 12270 kPa, x1 = 0.1488 | 835 ± 4
322.7 K, 12520 kPa, x1 = 0.1488 | 837 ± 4
322.7 K, 12600 kPa, x1 = 0.0981 | 818 ± 4
322.7 K, 12720 kPa, x1 = 0.0744 | 792 ± 4
322.7 K, 12780 kPa, x1 = 0.1488 | 839 ± 4
322.7 K, 13030 kPa, x1 = 0.0981 | 824 ± 4
322.7 K, 13270 kPa, x1 = 0.1488 | 844 ± 4
322.7 K, 13320 kPa, x1 = 0.0744 | 802 ± 4
322.7 K, 13530 kPa, x1 = 0.0981 | 830 ± 4
322.7 K, 13570 kPa, x1 = 0.1488 | 846 ± 4
322.7 K, 13850 kPa, x1 = 0.1488 | 849 ± 4
322.7 K, 14020 kPa, x1 = 0.0744 | 812 ± 4
322.7 K, 14030 kPa, x1 = 0.0981 | 836 ± 4
322.7 K, 14170 kPa, x1 = 0.1488 | 851 ± 4
322.7 K, 14470 kPa, x1 = 0.1488 | 853 ± 4
322.7 K, 14590 kPa, x1 = 0.0981 | 843 ± 4
322.7 K, 14600 kPa, x1 = 0.0744 | 820 ± 4
322.7 K, 14740 kPa, x1 = 0.1488 | 856 ± 4
322.7 K, 14960 kPa, x1 = 0.0744 | 824 ± 4
322.7 K, 15170 kPa, x1 = 0.0981 | 849 ± 4
322.7 K, 15190 kPa, x1 = 0.0744 | 828 ± 4
324 K, 9110 kPa, x1 = 0.0483 | 519 ± 4
324 K, 9140 kPa, x1 = 0.0483 | 527 ± 4
324 K, 9190 kPa, x1 = 0.0483 | 537 ± 4
324 K, 9250 kPa, x1 = 0.0483 | 546 ± 4
324 K, 9310 kPa, x1 = 0.0483 | 556 ± 4
324 K, 9370 kPa, x1 = 0.0483 | 566 ± 4
324 K, 9450 kPa, x1 = 0.0483 | 576 ± 4
324 K, 9540 kPa, x1 = 0.0483 | 587 ± 4
324 K, 9630 kPa, x1 = 0.0483 | 599 ± 4
324 K, 9750 kPa, x1 = 0.0483 | 611 ± 4
324 K, 9850 kPa, x1 = 0.0483 | 620 ± 4
324 K, 10010 kPa, x1 = 0.0483 | 633 ± 4
324 K, 10200 kPa, x1 = 0.0483 | 646 ± 4
324 K, 10420 kPa, x1 = 0.0483 | 660 ± 4
324 K, 10690 kPa, x1 = 0.0483 | 674 ± 4
324 K, 11030 kPa, x1 = 0.0483 | 689 ± 4
324 K, 11440 kPa, x1 = 0.0483 | 705 ± 4
324 K, 11960 kPa, x1 = 0.0483 | 721 ± 4
324 K, 12550 kPa, x1 = 0.0483 | 738 ± 4
324 K, 13030 kPa, x1 = 0.0483 | 749 ± 4
324 K, 13450 kPa, x1 = 0.0483 | 758 ± 4
324 K, 13950 kPa, x1 = 0.0483 | 768 ± 4
324 K, 14450 kPa, x1 = 0.0483 | 778 ± 4
324 K, 15020 kPa, x1 = 0.0483 | 788 ± 4
327.6 K, 8120 kPa, x1 = 0.0243 | 244 ± 4
327.6 K, 8180 kPa, x1 = 0.0243 | 249 ± 4
327.6 K, 8250 kPa, x1 = 0.0243 | 253 ± 4
327.6 K, 8320 kPa, x1 = 0.0243 | 258 ± 4
327.6 K, 8390 kPa, x1 = 0.0243 | 263 ± 4
327.6 K, 8460 kPa, x1 = 0.0243 | 268 ± 4
327.6 K, 8480 kPa, x1 = 0.1488 | 758 ± 4
327.6 K, 8520 kPa, x1 = 0.0243 | 274 ± 4
327.6 K, 8590 kPa, x1 = 0.0243 | 279 ± 4
327.6 K, 8670 kPa, x1 = 0.0243 | 285 ± 4
327.6 K, 8710 kPa, x1 = 0.1488 | 762 ± 4
327.6 K, 8750 kPa, x1 = 0.0243 | 291 ± 4
327.6 K, 8820 kPa, x1 = 0.0243 | 298 ± 4
327.6 K, 8880 kPa, x1 = 0.0243 | 304 ± 4
327.6 K, 8920 kPa, x1 = 0.0981 | 692 ± 4
327.6 K, 8920 kPa, x1 = 0.1488 | 766 ± 4
327.6 K, 8950 kPa, x1 = 0.0243 | 311 ± 4
327.6 K, 9040 kPa, x1 = 0.0243 | 318 ± 4
327.6 K, 9050 kPa, x1 = 0.0981 | 698 ± 4
327.6 K, 9110 kPa, x1 = 0.0243 | 326 ± 4
327.6 K, 9140 kPa, x1 = 0.1488 | 770 ± 4
327.6 K, 9180 kPa, x1 = 0.0243 | 334 ± 4
327.6 K, 9200 kPa, x1 = 0.0981 | 704 ± 4
327.6 K, 9270 kPa, x1 = 0.0243 | 343 ± 4
327.6 K, 9350 kPa, x1 = 0.0243 | 352 ± 4
327.6 K, 9360 kPa, x1 = 0.0981 | 711 ± 4
327.6 K, 9370 kPa, x1 = 0.1488 | 774 ± 4
327.6 K, 9410 kPa, x1 = 0.0243 | 359 ± 4
327.6 K, 9410 kPa, x1 = 0.0483 | 469 ± 4
327.6 K, 9430 kPa, x1 = 0.0483 | 473 ± 4
327.6 K, 9460 kPa, x1 = 0.0243 | 364 ± 4
327.6 K, 9470 kPa, x1 = 0.0483 | 480 ± 4
327.6 K, 9520 kPa, x1 = 0.0483 | 487 ± 4
327.6 K, 9530 kPa, x1 = 0.0981 | 718 ± 4
327.6 K, 9570 kPa, x1 = 0.0483 | 494 ± 4
327.6 K, 9600 kPa, x1 = 0.1488 | 778 ± 4
327.6 K, 9620 kPa, x1 = 0.0483 | 502 ± 4
327.6 K, 9670 kPa, x1 = 0.0483 | 510 ± 4
327.6 K, 9730 kPa, x1 = 0.0483 | 518 ± 4
327.6 K, 9730 kPa, x1 = 0.0981 | 725 ± 4
327.6 K, 9790 kPa, x1 = 0.0483 | 526 ± 4
327.6 K, 9850 kPa, x1 = 0.1488 | 781 ± 4
327.6 K, 9860 kPa, x1 = 0.0483 | 535 ± 4
327.6 K, 9930 kPa, x1 = 0.0483 | 544 ± 4
327.6 K, 9940 kPa, x1 = 0.0981 | 731 ± 4
327.6 K, 10010 kPa, x1 = 0.0483 | 553 ± 4
327.6 K, 10090 kPa, x1 = 0.0483 | 562 ± 4
327.6 K, 10110 kPa, x1 = 0.1488 | 785 ± 4
327.6 K, 10190 kPa, x1 = 0.0483 | 572 ± 4
327.6 K, 10200 kPa, x1 = 0.0981 | 739 ± 4
327.6 K, 10290 kPa, x1 = 0.0483 | 582 ± 4
327.6 K, 10410 kPa, x1 = 0.0483 | 593 ± 4
327.6 K, 10410 kPa, x1 = 0.1488 | 790 ± 4
327.6 K, 10450 kPa, x1 = 0.0981 | 746 ± 4
327.6 K, 10540 kPa, x1 = 0.0483 | 604 ± 4
327.6 K, 10690 kPa, x1 = 0.0483 | 615 ± 4
327.6 K, 10720 kPa, x1 = 0.1488 | 794 ± 4
327.6 K, 10770 kPa, x1 = 0.0981 | 754 ± 4
327.6 K, 10810 kPa, x1 = 0.0483 | 623 ± 4
327.6 K, 10910 kPa, x1 = 0.0483 | 629 ± 4
327.6 K, 11000 kPa, x1 = 0.0483 | 635 ± 4
327.6 K, 11050 kPa, x1 = 0.1488 | 798 ± 4
327.6 K, 11060 kPa, x1 = 0.0483 | 639 ± 4
327.6 K, 11110 kPa, x1 = 0.0981 | 761 ± 4
327.6 K, 11140 kPa, x1 = 0.0483 | 644 ± 4
327.6 K, 11220 kPa, x1 = 0.0483 | 648 ± 4
327.6 K, 11380 kPa, x1 = 0.1488 | 802 ± 4
327.6 K, 11460 kPa, x1 = 0.0981 | 769 ± 4
327.6 K, 11770 kPa, x1 = 0.1488 | 806 ± 4
327.6 K, 11880 kPa, x1 = 0.0981 | 777 ± 4
327.6 K, 12150 kPa, x1 = 0.1488 | 811 ± 4
327.6 K, 12330 kPa, x1 = 0.0981 | 785 ± 4
327.6 K, 12530 kPa, x1 = 0.1488 | 815 ± 4
327.6 K, 12830 kPa, x1 = 0.0981 | 792 ± 4
327.6 K, 12950 kPa, x1 = 0.1488 | 819 ± 4
327.6 K, 13400 kPa, x1 = 0.1488 | 823 ± 4
327.6 K, 13410 kPa, x1 = 0.0981 | 802 ± 4
327.6 K, 13890 kPa, x1 = 0.1488 | 828 ± 4
327.6 K, 14220 kPa, x1 = 0.0981 | 813 ± 4
327.6 K, 14350 kPa, x1 = 0.1488 | 832 ± 4
327.6 K, 14900 kPa, x1 = 0.1488 | 837 ± 4
